Source: ChEMBL document CHEMBL4808164, “Giffonins, Antioxidant Diarylheptanoids from Corylus avellana, and Their Ability to Prevent Oxidative Changes in Human Plasma Proteins” (J Nat Prod, 2021)
The source made the active and inactive calls. The rule behind the calls is not given here.

How the values were obtained:
[1] = tested on: Plasma; assay: Effect on autoxidation of thiol group in human plasma protein at 0.1 to 100 uM by Ellman reagent based spectrophotometry; format: ADME, cell-free; settings: dose 0.1-100 µM
[2] = tested on: Plasma; assay: Effect on auto-carbonylation of human plasma protein at 0.1 to 100 uM; format: ADME, cell-free; settings: dose 0.1-100 µM
[3] = tested on: Plasma; assay: Antioxidant activity in human plasma protein assessed as reduction of H2O2/Fe2+-induced oxidation of thiol group at 10 uM incubated for 30 mins by Ellman reagent based spectrophotometry; format: functional, cell-free
[4] = tested on: Plasma; assay: Antioxidant activity in human plasma protein assessed as reduction of H2O2-induced oxidation of thiol group at 10 uM incubated for 30 mins by Ellman reagent based spectrophotometry; format: functional, cell-free
[5] = tested on: Plasma; assay: Antioxidant activity in human plasma protein assessed as reduction of H2O2/Fe2+-induced plasma protein carbonylation at 10 uM incubated for 30 mins; format: functional
[6] = tested on: Plasma; assay: Antioxidant activity in human plasma protein assessed as reduction of H2O2-induced plasma protein carbonylation at 10 uM incubated for 30 mins; format: functional, cell-free
[7] = tested on: Plasma; assay: Antioxidant activity in human plasma assessed as inhibition of H2O2-induced lipid peroxidation at 10 uM incubated for 30 mins by TBARS assay; format: functional, cell-free
[8] = tested on: Plasma; assay: Antioxidant activity in human plasma assessed as inhibition of H2O2/[…]-induced lipid peroxidation at 10 uM incubated for 30 mins by TBARS assay; format: functional, cell-free

Row | SMILES | Activity [1] | Activity [2] | Activity [3] | Activity [4] | Activity [5] | Activity [6] | inhibition [7] [%] | inhibition [8] [%] | Activity ([5]; 0.5 h) [%]
1 | COc1c2cc(c(OC)c1O)Oc1ccc(cc1)CCC(=O)CC/C=C\2 | Non-Toxic | Non-Toxic | Active | Active |  |  |  |  | 
2 | O=C1CCc2ccc(O)c(c2)-c2cc(ccc2O)C[C@H](O)[C@@H](O)[C@@H]1O | Non-Toxic | Non-Toxic | Active | Active | Active | Active |  |  | 
3 | O=C1[C@@H](O)Cc2ccc(O)c(c2)-c2cc(ccc2O)C[C@@H](O)[C@H](O)[C@H]1O |  |  |  |  |  |  | 3.8 | 23.9 | 
4 | COc1c2cc(c(OC)c1O)Oc1ccc(cc1)[C@@H](O)C[C@H](O)CC/C=C/2 |  |  |  |  |  |  | 2.7 | 4 | 
5 | O=C1C[C@@H](O)Cc2ccc(O)c(c2)-c2cc(ccc2O)C[C@H](O)[C@H]1O |  |  |  |  |  |  | 6.2 | 4.2 | 
6 | Oc1ccc2cc1-c1cc(ccc1O)C[C@H](O)[C@@H](O)[C@@H](O)C[C@@H](O)C2 |  |  |  |  |  |  | 33.3 | 14.4 | 
7 | COc1cc(/C=C/C(=O)CC(=O)/C=C/c2ccc(O)c(OC)c2)ccc1O |  |  |  |  |  |  | 20.6 | 23.2 | 
8 | Oc1ccc2cc1-c1cc(ccc1O)C[C@H](O)[C@H](O)C(O)[C@@H](O)[C@H](O)C2 (some centres undefined) |  |  |  |  |  |  | 33.6 | 10.4 | 
9 | COc1c2cc(c(OC)c1O)Oc1ccc(cc1)CCCC[C@@H](O)/C=C\2 | Non-Toxic | Non-Toxic | Active | Active | Active | Active |  |  | 
10 | COc1c2cc(c(OC)c1O)Oc1ccc(cc1)[C@@H](O)C[C@H](O)/C=C/C=C/2 | Non-Toxic | Non-Toxic | Active | Active |  | Active | 24.2 | 25.5 | 65
11 | O=C1CCc2ccc(O)c(c2)-c2cc(ccc2O)C[C@@H](O)[C@H](O)C1 |  |  |  |  |  |  | 3.9 | 11.2 | 
12 | O=C1CCc2ccc(O)c(c2)-c2cc(ccc2O)C[C@H](O[C@@H]2O[C@H](CO)[C@@H](O)[C@H](O)[C@H]2O)C[C@@H]1O |  |  |  |  |  |  | 3.9 | 4.8 | 
13 | O=C1/C=C/CCc2ccc(O)c(c2)-c2cc(ccc2O)CC1 | Non-Toxic | Non-Toxic | Active | Active |  |  |  |  | 
14 | COc1c(O)cc2cc1Oc1ccc(cc1)CC[C@@H](O)/C=C/C=C\2 | Non-Toxic | Non-Toxic | Active | Active | Active | Active |  |  | 
15 | COc1c2cc(c(OC)c1O)Oc1ccc(cc1)CC[C@@H](O)/C=C/C=C\2 | Non-Toxic | Non-Toxic | Active | Active |  | Active |  |  | 65
16 | O=C1CCc2ccc(O)c(c2)-c2cc(ccc2O)C[C@H](O)C[C@H]1O | Non-Toxic | Non-Toxic | Active | Active | Active | Active | 44.4 | 34.1 | 
